Usually IC50 stands for the concentration at which inhibition is half-maximal. For orientation: inhibition means the share of the control response that was lost under treatment. One may read the Papp as a coefficient for how fast a substance crosses the barrier.

Series [1] has as its target T1, Beta-galactoside alpha-2,6-sialyltransferase 1 (Homo sapiens, UniProt P15907).
T1 sequence (P15907 whole entry): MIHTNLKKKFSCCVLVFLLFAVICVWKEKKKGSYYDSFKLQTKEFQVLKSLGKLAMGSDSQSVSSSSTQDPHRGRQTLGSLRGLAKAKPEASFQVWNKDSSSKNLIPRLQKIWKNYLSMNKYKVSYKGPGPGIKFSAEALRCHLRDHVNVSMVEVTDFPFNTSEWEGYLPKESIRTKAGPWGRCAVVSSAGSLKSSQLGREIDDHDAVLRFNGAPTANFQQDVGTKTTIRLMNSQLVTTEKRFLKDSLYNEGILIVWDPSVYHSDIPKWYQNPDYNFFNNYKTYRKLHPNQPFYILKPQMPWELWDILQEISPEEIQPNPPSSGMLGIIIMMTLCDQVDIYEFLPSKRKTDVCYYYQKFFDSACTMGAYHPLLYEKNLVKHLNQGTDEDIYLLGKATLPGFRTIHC
As to the kind of experiment: Inhibition of human alpha-2,6-ST6GAL1 assessed as reduction in sialylated-product formation using Gal-beta1-4GlcNac and CMP-NeuSAc incubated for 15 mins by reverse-phase HPLC analysis.

Series [2] concerns the target T2, Sialyltransferase ST3Gal-I (Rattus norvegicus) (UniProt Q6H8N0).
T2 sequence (whole entry): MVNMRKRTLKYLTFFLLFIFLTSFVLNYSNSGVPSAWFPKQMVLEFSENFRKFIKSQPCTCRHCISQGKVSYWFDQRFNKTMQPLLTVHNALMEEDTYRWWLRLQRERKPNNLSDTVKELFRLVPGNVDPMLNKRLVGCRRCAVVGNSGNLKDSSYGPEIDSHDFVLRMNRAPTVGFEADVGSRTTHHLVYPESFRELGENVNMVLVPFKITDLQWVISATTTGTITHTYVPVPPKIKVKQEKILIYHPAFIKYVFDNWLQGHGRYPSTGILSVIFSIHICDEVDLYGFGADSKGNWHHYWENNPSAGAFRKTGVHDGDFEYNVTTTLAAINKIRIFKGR
Kind of series: Inhibition of rat alpha-2,3-O-ST3GALI assessed as reduction in sialylated-product formation at 500 uM using p-nitrophenyl T-antigen and CMP-NeuSAc incubated for 15 mins by reverse-phase HPLC analysis relative to control.

Series [3] in a line: Selectivity ratio of IC50 for of inhibition of rat alpha-2,3-O-ST3GALI to IC50 for inhibition of human alpha-2,6-ST6GAL1.
Series [4] in a line: Toxicity in human MDA-MB-231 cells assessed as cell survival at >60 uM relative to control. The format is cell-based. The conditions noted are these: read-out: Survival.
Series [5] is described as follows: Apparent permeability at pH 7.4 by PAMPA. For orientation: In PAMPA a lipid-coated filter parts donor from acceptor wells.
Series [6] addresses T3, CMP-N-acetylneuraminate-beta-1,4-galactoside alpha-2,3-sialyltransferase (Rattus norvegicus, UniProt Q02734).
T3 sequence (Q02734 whole entry): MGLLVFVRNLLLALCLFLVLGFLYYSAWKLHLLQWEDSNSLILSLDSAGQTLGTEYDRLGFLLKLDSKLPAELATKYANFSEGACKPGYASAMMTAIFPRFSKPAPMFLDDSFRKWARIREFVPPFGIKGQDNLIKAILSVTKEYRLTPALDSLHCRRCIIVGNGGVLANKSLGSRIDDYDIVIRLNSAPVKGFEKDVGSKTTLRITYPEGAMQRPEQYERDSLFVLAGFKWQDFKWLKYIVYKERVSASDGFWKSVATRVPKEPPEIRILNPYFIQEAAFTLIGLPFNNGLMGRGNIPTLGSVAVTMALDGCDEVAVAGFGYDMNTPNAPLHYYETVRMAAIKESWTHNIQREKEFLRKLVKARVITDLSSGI
Kind of series: Inhibition of rat alpha-2,3-N-ST3GALIII assessed as reduction in sialylated-product formation using Gal-beta1-4Glc and CMP-NeuSAc incubated for 1.5 hrs by reverse-phase HPLC analysis.

Series [7] is filed under the species Rattus norvegicus. Kind of series: Selectivity ratio of inhibition of rat alpha-2,3-O-ST3GALI at 500 uM to IC50 for inhibition of rat alpha-2,3-N-ST3GALIII.
The target of series [8] is T2, Sialyltransferase ST3Gal-I (Rattus norvegicus). Kind of series: Inhibition of rat alpha-2,3-O-ST3GALI assessed as reduction in sialylated-product formation at 1 mM using p-nitrophenyl T-antigen and CMP-NeuSAc incubated for 15 mins by reverse-phase HPLC analysis relative to control.
The species entered for series [9] is Rattus norvegicus. As to the kind of experiment: Selectivity ratio of inhibition of rat alpha-2,3-O-ST3GALI at 1000 uM to IC50 for inhibition of rat alpha-2,3-N-ST3GALIII.
The target of series [10] is T4, Beta-galactoside alpha-2,6-sialyltransferase 1 (Homo sapiens) (UniProt P15907).
T4 sequence (whole entry): T1 sequence (P15907 whole entry)
Kind of series: Inhibition of human alpha-2,6-ST6GAL1 assessed as reduction in sialylated-product formation at 100 uM using Gal-beta1-4GlcNac and CMP-NeuSAc incubated for 15 mins by reverse-phase HPLC analysis relative to control.

The target of series [11] is T5, Sialyltransferase ST3Gal-I (Rattus norvegicus, UniProt Q6H8N0).
T5 sequence (Q6H8N0 whole entry): T2 sequence (whole entry)
As to the kind of experiment: Inhibition of rat alpha-2,3-O-ST3GALI assessed as reduction in sialylated-product formation using p-nitrophenyl T-antigen and CMP-NeuSAc incubated for 15 mins by reverse-phase HPLC analysis.

Series [12] is filed under the species Rattus norvegicus. Kind of series: Selectivity ratio of IC50 for of inhibition of rat alpha-2,3-O-ST3GALI to IC50 for inhibition of rat alpha-2,3-N-ST3GALIII.

As to `C[C@H](CCC(=O)OCCN=[N+]=[N-])[C@H]1CC[C@H]2[C@@H]3CC[C@@H]4C[C@H](OC(=O)[C@H](CC(=O)O)NC(=O)c5ccc([N+](=O)[O-])cc5)CC[C@]4(C)[C@H]3CC[C@]12C`, the 50% inhibitory concentration (IC50) in series [1] was found to be 7.2 µM. Further, the inhibition in series [2] stood at 0%. The Ratio IC50 in series [3] is > 70. Also, the viability in [4] is > 90%.
On the same counts, the results for `C[C@H](CCC(=O)OCCOCCN=[N+]=[N-])[C@H]1CC[C@H]2[C@@H]3CC[C@@H]4C[C@H](OC(=O)[C@H](CC(=O)O)NC(=O)c5ccc([N+](=O)[O-])cc5)CC[C@]4(C)[C@H]3CC[C@]12C` are 6.7 µM, 0%, > 74 and > 90%.
Taken in the same sequence, the figures for `COc1ccc2c(CC(=O)N[C@@H](CC(=O)O)C(=O)O[C@@H]3CC[C@@]4(C)[C@H](CC[C@@H]5[C@@H]4CC[C@]4(C)[C@@H]([C@H](C)CCC(=O)OCCOCCN=[N+]=[N-])CC[C@@H]54)C3)cc(=O)oc2c1` were 5.1 µM, 0%, > 97 and > 90%.
Turning to `C[C@H](CCC(=O)OCCOCCOCCN=[N+]=[N-])[C@H]1CC[C@H]2[C@@H]3CC[C@@H]4C[C@H](OC(=O)[C@H](CC(=O)O)NC(=O)c5ccc([N+](=O)[O-])cc5)CC[C@]4(C)[C@H]3CC[C@]12C`, the IC50 in series [1] came out at 5.4 µM. For the same compound, the inhibition in [2] is 0%. The Ratio IC50 in series [3] was > 94. Moreover, the viability in [4] was > 90%.
On to `Cn1c(=O)c2[nH]cnc2n(C)c1=O.O` [THEOPHYLLINE], for which the Papp in series [5] was found to be 1.4 ×10⁻⁶ cm/s.
In the case of `C[C@H](CCC(=O)OCCOCCOCCOCCOCCN=[N+]=[N-])[C@H]1CC[C@H]2[C@@H]3CC[C@@H]4C[C@H](OC(=O)[C@H](CC(=O)O)Nc5ccc([N+](=O)[O-])c6nonc56)CC[C@]4(C)[C@H]3CC[C@]12C`, the IC50 worked out at 1 µM in series [6] and 5 µM in series [1]. The inhibition in series [2] amounted to 0%. In the series filed under Rattus norvegicus [7], the Selectivity ratio was > 516. In [3], the Ratio IC50 was > 99. In addition, the viability in series [4] was > 90%.
Take `COc1ccc2c(CC(=O)N[C@@H](CC(=O)O)C(=O)O[C@@H]3CC[C@@]4(C)[C@H](CC[C@@H]5[C@@H]4CC[C@]4(C)[C@@H]([C@H](C)CCC(=O)OCCOCCOCCN=[N+]=[N-])CC[C@@H]54)C3)cc(=O)oc2c1`: the IC50 in [1] worked out at 4.6 µM. Moreover, the inhibition in series [2] was 0%. Moreover, the Ratio IC50 in [3] is > 109. The viability in series [4] was > 90%.
With `C[C@H](CCC(=O)OCCOCCN=[N+]=[N-])[C@H]1CC[C@H]2[C@@H]3CC[C@@H]4C[C@H](OC(=O)[C@H](CC(=O)O)Nc5ccc([N+](=O)[O-])c6nonc56)CC[C@]4(C)[C@H]3CC[C@]12C`, the IC50 in series [6] is 0.77 µM; in series [1] it was 4.33 µM. In addition, the inhibition in [2] is 0%; in [8], 74%. The Selectivity ratio in the series listed under Rattus norvegicus [7] is > 649; in the series listed under Rattus norvegicus [9] it was < 1300. In addition, in series [3], the Ratio IC50 was > 116. Moreover, in series [4], the viability is > 90%.
As to `C[C@H](CCC(=O)OCCN=[N+]=[N-])[C@H]1CC[C@H]2[C@@H]3CC[C@@H]4C[C@H](OC(=O)[C@H](CC(=O)O)Nc5ccc([N+](=O)[O-])c6nonc56)CC[C@]4(C)[C@H]3CC[C@]12C`, the IC50 in series [6] was determined as 0.8 µM; in series [1] it was 4.2 µM. For the same compound, the inhibition in series [2] came to 0%. The Selectivity ratio in the series filed under Rattus norvegicus [7] was > 625. The Ratio IC50 in series [3] is > 119. The viability in series [4] was > 90%.
As for `COc1ccc2c(CC(=O)N[C@@H](CC(=O)O)C(=O)O[C@@H]3CC[C@@]4(C)[C@H](CC[C@@H]5[C@@H]4CC[C@]4(C)[C@@H]([C@H](C)CCC(=O)OCCN=[N+]=[N-])CC[C@@H]54)C3)cc(=O)oc2c1`, the IC50 in [1] worked out at 5.6 µM. The inhibition in series [2] was determined as 0%. Further, in series [3], the Ratio IC50 was > 89. Moreover, the viability in series [4] is > 90%.
As for `C[C@@H]1O[C@@H](O[C@H]2[C@H](O[C@H]3[C@H](O[C@H]4CC[C@@]5(C)[C@@H](CC[C@]6(C)[C@@H]5CC=C5[C@@H]7CC(C)(C)C[C@@H](O)[C@]7(C)CC[C@]56C)[C@@]4(C)CO)O[C@H](C(=O)O)[C@@H](O)[C@@H]3O)O[C@H](CO)[C@H](O)[C@@H]2O)[C@H](O)[C@H](O)[C@H]1O`, the figures for the inhibition in [10], in series [2] and in series [8] were 68%, 59% and 83%, respectively.
Consider `C[C@H](CCC(=O)O)[C@H]1CC[C@H]2[C@@H]3CC[C@@H]4C[C@H](OC(=O)[C@H](CCC(=O)O)Nc5ccc([N+](=O)[O-])c6nonc56)CC[C@]4(C)[C@H]3CC[C@]12C`, for which the IC50 in series [6] is 0.9 µM; in [11] it was 13.2 µM. The Ratio IC50 in the series filed under Rattus norvegicus [12] is 15; in series [3], 9.
On to `COc1ccc2c(CC(=O)N[C@@H](CC(=O)O)C(=O)O[C@@H]3CC[C@@]4(C)[C@H](CC[C@@H]5[C@@H]4CC[C@]4(C)[C@@H]([C@H](C)CCC(=O)OCCOCCOCCOCCOCCN=[N+]=[N-])CC[C@@H]54)C3)cc(=O)oc2c1`, for which the IC50 in series [1] came out at 5.7 µM. In addition, the inhibition in [2] amounted to 0%. In addition, in series [3], the Ratio IC50 was > 88. Besides, the viability in series [4] was > 90%.
As to `C[C@H](CCC(=O)OCCOCCOCCOCCN=[N+]=[N-])[C@H]1CC[C@H]2[C@@H]3CC[C@@H]4C[C@H](OC(=O)[C@H](CC(=O)O)NC(=O)c5ccc([N+](=O)[O-])cc5)CC[C@]4(C)[C@H]3CC[C@]12C`, the IC50 in series [1] came out at 5.7 µM. Besides, in series [2], the inhibition was determined as 0%. The Ratio IC50 in [3] was > 88. In addition, the viability in series [4] was > 90%.
Taken in the same sequence, the figures for `COc1ccc2c(CC(=O)N[C@@H](CC(=O)O)C(=O)O[C@@H]3CC[C@@]4(C)[C@H](CC[C@@H]5[C@@H]4CC[C@]4(C)[C@@H]([C@H](C)CCC(=O)OCCOCCOCCOCCN=[N+]=[N-])CC[C@@H]54)C3)cc(=O)oc2c1` were 5 µM, 0%, > 101 and > 90%.
Take `C[C@H](CCC(=O)NCC(=O)O)[C@H]1CC[C@H]2[C@@H]3CC[C@@H]4C[C@H](O)CC[C@]4(C)[C@H]3CC[C@]12C`: the inhibition in series [10] was found to be 9%; in series [2], 15%; in series [8], 41%.
With `C[C@H](CCC(=O)OCCOCCOCCOCCOCCN=[N+]=[N-])[C@H]1CC[C@H]2[C@@H]3CC[C@@H]4C[C@H](OC(=O)[C@H](CC(=O)O)NC(=O)c5ccc([N+](=O)[O-])cc5)CC[C@]4(C)[C@H]3CC[C@]12C`, the IC50 in series [1] is 7.5 µM. For the same compound, in series [2], the inhibition was determined as 0%. The Ratio IC50 in [3] is > 67. Also, the viability in series [4] is > 90%.

The values are drawn from ChEMBL document CHEMBL4765481, “Sialyltransferase Inhibitors Suppress Breast Cancer Metastasis” (J Med Chem, 2021).
